Measurements: ChEMBL document CHEMBL4419171, “SMAC mimetic compounds as apoptosis inducers” (2013)

Columns and labels:
Assay type in all cases: functional
HL-60 = assay: Cytotoxicity against human HL60 cells assessed as cell viability at 10 nM in presence of 100 ng/ml cisplatin incubated for 72 hrs by WST1 dye based assay relative to control
K562 [1] = assay: Cytotoxicity against human K562 cells assessed as cell viability at 10 nM in presence of 10 ng/ml cisplatin incubated for 72 hrs by WST1 dye based assay relative to control
K562 [2] = assay: Cytotoxicity against human K562 cells assessed as cell viability at 100 nM in presence of 100 nM taxol incubated for 72 hrs by WST1 dye based assay relative to control; conditions: K562, 72 h, read-out: Activity
K562 [3] = assay: Cytotoxicity against human K562 cells assessed as cell viability at 0.1 nM in presence of 100 ng/ml cisplatin incubated for 72 hrs by WST1 dye based assay relative to control

| SMILES | Activity (HL-60) [%] | Activity (K562 [1]) [%] | viability at 0.1 µM (K562 [2]) [%] | Activity (K562 [3]) [%] |
| --- | --- | --- | --- | --- |
| CC[C@H](N)C(=O)N[C@@H]1C(=O)N2[C@@H](CC[C@@H]1CO)CC[C@H]2C(=O)NC(c1ccccc1)c1ccccc1.O=C(O)C(F)(F)F | 43 | 48 |  |  |
| CC[C@H](N)C(=O)N[C@@H]1C(=O)N2[C@@H](CC[C@@H]1Cn1cc(CO[C@H](C)[C@H](NC(=O)[C@H](C)NC)C(=O)N3CCC[C@H]3Cn3nnnc3Sc3ccccc3)nn1)CC[C@H]2C(=O)NC(c1ccccc1)c1ccccc1.O=C(O)C(F)(F)F |  |  | 27 | 30 |
